Paper PMC10041525, “New Dual Inhibitors of Bacterial Topoisomerases with Broad-Spectrum Antibacterial Activity and In Vivo Efficacy against Vancomycin-Intermediate Staphylococcus aureus” (Journal of Medicinal Chemistry, 2023)
Converted amounts (≈) assume the structure as drawn. Read-outs that look alike come from different tables or passages of the source.

What was measured:
[1] = test system: Haemophilus influenzae (n = 14); experiment: MIC broth microdilution at IHMA Europe; type: cell-based, H. influenzae; details: for MIC: Haemophilus influenzae, read-out: MIC
H. influenzae ATCC 49247 = test system: H. influenzae ATCC 49247; parameters: method as in earlier work; details: QC range for H. influenzae ATCC 49247, ref CLSI; cited from earlier work
E. coli ATCC 25922 = test system: E. coli ATCC 25922; parameters: method as in earlier work; details: QC range for E. coli ATCC 25922, ref CLSI; cited from earlier work
E. faecalis ATCC 29212 = experiment: IHMA QC MIC; type: cell-based
From the text: Supplement jm2c01905_si_004.xlsx, sheet "QC" | column: MIC [µg/mL]

E. faecium (n = 13) = experiment: MIC broth microdilution at IHMA Europe; type: cell-based; details: for MIC: Enterococcus faecium, read-out: MIC
S. pneumoniae (n = 12) = experiment: MIC broth microdilution at IHMA Europe; type: cell-based; details: for MIC: Streptococcus pneumoniae, read-out: MIC
S. pneumoniae ATCC 49619 = test system: S. pneumoniae ATCC 49619; parameters: method as in earlier work; details: QC range for S. pneumoniae ATCC 49619, ref CLSI; cited from earlier work
P. aeruginosa ATCC 27853 = test system: P. aeruginosa ATCC 27853; parameters: method as in earlier work; details: QC range for P. aeruginosa ATCC 27853, ref CLSI; cited from earlier work
[2] = QC strain E. faecalis ATCC 29212, test date 2021-11-26

CC1(C)S[C@@H]2[C@H](NC(=O)[C@H](N)c3ccccc3)C(=O)N2[C@H]1C(=O)O [Ampicillin, ampicillin]
MIC ([1]; H. influenzae IHMA N° 1227715): 16 µg/mL (≈ 45.8 µM)
MIC ([1]; H. influenzae IHMA N° 1241620): 4 µg/mL (≈ 11.4 µM)
MIC ([1]; H. influenzae IHMA N° 1244149): 16 µg/mL (≈ 45.8 µM)
MIC ([1]; H. influenzae IHMA N° 1249803): 2 µg/mL (≈ 5.72 µM)
MIC ([1]; H. influenzae IHMA N° 1254355): 2 µg/mL (≈ 5.72 µM)
MIC ([1]; H. influenzae IHMA N° 1258580): 16 µg/mL (≈ 45.8 µM)
MIC ([1]; H. influenzae IHMA N° 1262734): 8 µg/mL (≈ 22.9 µM)
MIC ([1]; H. influenzae IHMA N° 1272723): 16 µg/mL (≈ 45.8 µM)
MIC ([1]; H. influenzae IHMA N° 1286846): 8 µg/mL (≈ 22.9 µM)
MIC ([1]; H. influenzae IHMA N° 1337530): 32 µg/mL (≈ 91.6 µM)
MIC ([1]; H. influenzae IHMA N° 1440085): 8 µg/mL (≈ 22.9 µM)
MIC ([1]; H. influenzae IHMA N° 1479509): 8 µg/mL (≈ 22.9 µM)
MIC ([1]; H. influenzae IHMA N° 1952952): 4 µg/mL (≈ 11.4 µM)
MIC ([1]; H. influenzae IHMA N° 2047461): 32 µg/mL (≈ 91.6 µM)
Cumulative % at MIC ([1]; MIC 2 µg/mL): 14.3%
No. of isolates at MIC ([1]; MIC 2 µg/mL): 2
Cumulative % at MIC ([1]; MIC […] µg/mL): 85.7%
No. of isolates at MIC ([1]; MIC […] µg/mL): 4
Cumulative % at MIC ([1]; MIC 32 µg/mL): 100.0%
No. of isolates at MIC ([1]; MIC 32 µg/mL): 2
MIC, CLSI Range (H. influenzae ATCC 49247): 2 to 8 µg/mL
MIC, CLSI Range (E. coli ATCC 25922): 2 to 8 µg/mL
MIC (E. faecalis ATCC 29212; Enterococcus faecalis, ATCC29212, QC strain E. faecalis ATCC 29212, test date 2021-11-11, read-out: MIC): 1 µg/mL (≈ 2.86 µM)
MIC (E. faecalis ATCC 29212; [2]): 1 µg/mL (≈ 2.86 µM)
MIC (E. faecium (n = 13); E. faecium IHMA N° 1764866): > 32 µg/mL
MIC (E. faecium (n = 13); E. faecium IHMA N° 1765436): > 32 µg/mL
MIC (E. faecium (n = 13); E. faecium IHMA N° 1765746): > 32 µg/mL
MIC (E. faecium (n = 13); E. faecium IHMA N° 1893573): > 32 µg/mL
MIC (E. faecium (n = 13); E. faecium IHMA N° 1893846): > 32 µg/mL
MIC (E. faecium (n = 13); E. faecium IHMA N° 1893942): > 32 µg/mL
MIC (E. faecium (n = 13); E. faecium IHMA N° 1894055): > 32 µg/mL
MIC (E. faecium (n = 13); E. faecium IHMA N° 1897027): > 32 µg/mL
MIC (E. faecium (n = 13); E. faecium IHMA N° 1897101): > 32 µg/mL
MIC (E. faecium (n = 13); E. faecium IHMA N° 1904592): > 32 µg/mL
MIC (E. faecium (n = 13); E. faecium IHMA N° 2075051): > 32 µg/mL
MIC (E. faecium (n = 13); E. faecium IHMA N° 2077718): > 32 µg/mL
MIC (E. faecium (n = 13); E. faecium IHMA N° 2083787): > 32 µg/mL
Cumulative % at MIC (E. faecium (n = 13); MIC >32 µg/mL): 100.0%
No. of isolates at MIC (E. faecium (n = 13); MIC >32 µg/mL): 13
Cumulative % at MIC (S. pneumoniae (n = 12); MIC 0.5 µg/mL): 25.0%
No. of isolates at MIC (S. pneumoniae (n = 12); MIC 0.5 µg/mL): 2
Cumulative % at MIC (S. pneumoniae (n = 12); MIC 1 µg/mL): 33.3%
No. of isolates at MIC (S. pneumoniae (n = 12); MIC 1 µg/mL): 1
Cumulative % at MIC (S. pneumoniae (n = 12); MIC 2 µg/mL): 66.7%
No. of isolates at MIC (S. pneumoniae (n = 12); MIC 2 µg/mL): 4
No. of isolates at MIC (S. pneumoniae (n = 12); MIC […] µg/mL): 2
Cumulative % at MIC (S. pneumoniae (n = 12); MIC ≤0.03 µg/mL): 8.3%
No. of isolates at MIC (S. pneumoniae (n = 12); MIC ≤0.03 µg/mL): 1
MIC (S. pneumoniae (n = 12); S. pneumoniae IHMA N° 1775387): 4 µg/mL (≈ 11.4 µM)
MIC (S. pneumoniae (n = 12); S. pneumoniae IHMA N° 1776057): 2 µg/mL (≈ 5.72 µM)
MIC (S. pneumoniae (n = 12); S. pneumoniae IHMA N° 1785617): 8 µg/mL (≈ 22.9 µM)
MIC (S. pneumoniae (n = 12); S. pneumoniae IHMA N° 1800765): 0.5 µg/mL (≈ 1.43 µM)
MIC (S. pneumoniae (n = 12); S. pneumoniae IHMA N° 1811259): 2 µg/mL (≈ 5.72 µM)
MIC (S. pneumoniae (n = 12); S. pneumoniae IHMA N° 1831562): ≤ 0.03 µg/mL
MIC (S. pneumoniae (n = 12); S. pneumoniae IHMA N° 1902609): 4 µg/mL (≈ 11.4 µM)
MIC (S. pneumoniae (n = 12); S. pneumoniae IHMA N° 1979675): 2 µg/mL (≈ 5.72 µM)
MIC (S. pneumoniae (n = 12); S. pneumoniae IHMA N° 1991963): 1 µg/mL (≈ 2.86 µM)
MIC (S. pneumoniae (n = 12); S. pneumoniae IHMA N° 2057487): 2 µg/mL (≈ 5.72 µM)
MIC (S. pneumoniae (n = 12); S. pneumoniae IHMA N° 2073087): 8 µg/mL (≈ 22.9 µM)
MIC (S. pneumoniae (n = 12); S. pneumoniae IHMA N° 2117109): 0.5 µg/mL (≈ 1.43 µM)
MIC, CLSI Range (S. pneumoniae ATCC 49619): 0,06 - 0,25 µg/mL

C[C@H]1COc2c(N3CCN(C)CC3)c(F)cc3c(=O)c(C(=O)O)cn1c23.C[C@H]1COc2c(N3CCN(C)CC3)c(F)cc3c(=O)c(C(=O)O)cn1c23.O [Levofloxacin, levofloxacin]
MIC ([1]; H. influenzae IHMA N° 1227715): 0.015 µg/mL
MIC ([1]; H. influenzae IHMA N° 1241620): ≤ 0.004 µg/mL
MIC ([1]; H. influenzae IHMA N° 1244149): 0.015 µg/mL
MIC ([1]; H. influenzae IHMA N° 1249803): 0.015 µg/mL
MIC ([1]; H. influenzae IHMA N° 1254355): 0.12 µg/mL
MIC ([1]; H. influenzae IHMA N° 1258580): 0.015 µg/mL
MIC ([1]; H. influenzae IHMA N° 1262734): 0.015 µg/mL
MIC ([1]; H. influenzae IHMA N° 1272723): 0.015 µg/mL
MIC ([1]; H. influenzae IHMA N° 1286846): 0.015 µg/mL
MIC ([1]; H. influenzae IHMA N° 1337530): 0.015 µg/mL
MIC ([1]; H. influenzae IHMA N° 1440085): 0.015 µg/mL
MIC ([1]; H. influenzae IHMA N° 1479509): 0.0015 µg/mL
MIC ([1]; H. influenzae IHMA N° 1952952): 0.015 µg/mL
MIC ([1]; H. influenzae IHMA N° 2047461): 0.008 µg/mL
MIC, CLSI Range (P. aeruginosa ATCC 27853): 0,5 - 4 µg/mL
MIC, CLSI Range (H. influenzae ATCC 49247): 0,008 - 0,03 µg/mL
MIC, CLSI Range (E. coli ATCC 25922): 0,008 - 0,06 µg/mL
MIC (E. faecalis ATCC 29212; Enterococcus faecalis, ATCC29212): 1 µg/mL
MIC (E. faecalis ATCC 29212; [2]): 1 µg/mL
MIC (E. faecium (n = 13); E. faecium IHMA N° 1764866): > 32 µg/mL
MIC (E. faecium (n = 13); E. faecium IHMA N° 1765436): > 32 µg/mL
MIC (E. faecium (n = 13); E. faecium IHMA N° 1765746): > 32 µg/mL
MIC (E. faecium (n = 13); E. faecium IHMA N° 1893573): > 32 µg/mL
MIC (E. faecium (n = 13); E. faecium IHMA N° 1893846): > 32 µg/mL
MIC (E. faecium (n = 13); E. faecium IHMA N° 1893942): > 32 µg/mL
MIC (E. faecium (n = 13); E. faecium IHMA N° 1894055): > 32 µg/mL
MIC (E. faecium (n = 13); E. faecium IHMA N° 1897027): > 32 µg/mL
MIC (E. faecium (n = 13); E. faecium IHMA N° 1897101): > 32 µg/mL
MIC (E. faecium (n = 13); E. faecium IHMA N° 1904592): 32 µg/mL
MIC (E. faecium (n = 13); E. faecium IHMA N° 2075051): > 32 µg/mL
MIC (E. faecium (n = 13); E. faecium IHMA N° 2077718): > 32 µg/mL
MIC (E. faecium (n = 13); E. faecium IHMA N° 2083787): 32 µg/mL
No. of isolates at MIC (S. pneumoniae (n = 12); MIC 0.5 µg/mL): 5
MIC (S. pneumoniae (n = 12); S. pneumoniae IHMA N° 1775387): 1 µg/mL
MIC (S. pneumoniae (n = 12); S. pneumoniae IHMA N° 1776057): 0.5 µg/mL
MIC (S. pneumoniae (n = 12); S. pneumoniae IHMA N° 1785617): 0.5 µg/mL
MIC (S. pneumoniae (n = 12); S. pneumoniae IHMA N° 1800765): 1 µg/mL
MIC (S. pneumoniae (n = 12); S. pneumoniae IHMA N° 1811259): 0.5 µg/mL
MIC (S. pneumoniae (n = 12); S. pneumoniae IHMA N° 1831562): 1 µg/mL
MIC (S. pneumoniae (n = 12); S. pneumoniae IHMA N° 1902609): 1 µg/mL
MIC (S. pneumoniae (n = 12); S. pneumoniae IHMA N° 1979675): 0.5 µg/mL
MIC (S. pneumoniae (n = 12); S. pneumoniae IHMA N° 1991963): > 32 µg/mL
MIC (S. pneumoniae (n = 12); S. pneumoniae IHMA N° 2057487): 1 µg/mL
MIC (S. pneumoniae (n = 12); S. pneumoniae IHMA N° 2073087): 1 µg/mL
MIC (S. pneumoniae (n = 12); S. pneumoniae IHMA N° 2117109): 0.5 µg/mL
MIC, CLSI Range (S. pneumoniae ATCC 49619): 0,5 - 2 µg/mL
